Measurements: PubChem BioAssay (NCI)
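The compound was tested at five concentrations on cells cultured in 96-well plates, with a 48-hour exposure period. Abbreviation: GI50, concentration required for 50% inhibition of growth. TGI marks complete inhibition of growth.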

Assays:
Experiment in all cases: DTP human tumour cell line panel, 48 h
NCI-H460 lung = system: NCI-H460 lung
SR leukemia = system: SR leukemia
MALME-3M melanoma = system: MALME-3M melanoma
LOX IMVI melanoma = system: LOX IMVI melanoma
OVCAR-5 ovarian = system: OVCAR-5 ovarian
SF-268 CNS = system: SF-268 CNS
SN12C renal = system: SN12C renal
MCF7 breast = system: MCF7 breast
UACC-62 melanoma = system: UACC-62 melanoma
HT29 colon = system: HT29 colon
SW-620 colon = system: SW-620 colon
COLO 205 colon = system: COLO 205 colon
EKVX NSCLC = system: EKVX NSCLC
SK-MEL-28 melanoma = system: SK-MEL-28 melanoma
MDA-MB-468 breast = system: MDA-MB-468 breast
MDA-MB-231 breast = system: MDA-MB-231 breast
A549 NSCLC = system: A549 NSCLC
UACC-257 melanoma = system: UACC-257 melanoma
ACHN renal = system: ACHN renal
T-47D breast = system: T-47D breast
HOP-62 NSCLC = system: HOP-62 NSCLC
MOLT-4 leukemia = system: MOLT-4 leukemia
HL-60(TB) leukemia = system: HL-60(TB) leukemia
SK-MEL-5 melanoma = system: SK-MEL-5 melanoma
OVCAR-8 ovarian = system: OVCAR-8 ovarian
NCI-H522 lung = system: NCI-H522 lung
SNB-75 CNS = system: SNB-75 CNS
DU-145 prostate = system: DU-145 prostate
SK-OV-3 ovarian = system: SK-OV-3 ovarian
HCC-2998 colon = system: HCC-2998 colon
OVCAR-3 ovarian = system: OVCAR-3 ovarian
TK-10 renal = system: TK-10 renal
HS 578T breast = system: HS 578T breast
OVCAR-4 ovarian = system: OVCAR-4 ovarian
RXF 393 renal = system: RXF 393 renal
UO-31 renal = system: UO-31 renal
SK-MEL-2 melanoma = system: SK-MEL-2 melanoma
NCI-H226 lung = system: NCI-H226 lung
RPMI-8226 leukemia = system: RPMI-8226 leukemia
SNB-19 CNS = system: SNB-19 CNS
NCI-H23 lung = system: NCI-H23 lung
BT-549 breast = system: BT-549 breast
MDA-MB-435 = system: MDA-MB-435
HOP-92 NSCLC = system: HOP-92 NSCLC
CCRF-CEM leukemia = system: CCRF-CEM leukemia
K-562 leukemia = system: K-562 leukemia
HCT-116 colon = system: HCT-116 colon
PC-3 prostate = system: PC-3 prostate
SF-539 CNS = system: SF-539 CNS
KM12 colon = system: KM12 colon
IGROV1 ovarian = system: IGROV1 ovarian
786-0 renal = system: 786-0 renal
M14 melanoma = system: M14 melanoma
HCT-15 colon = system: HCT-15 colon
U251 CNS = system: U251 CNS
SF-295 CNS = system: SF-295 CNS
A498 renal = system: A498 renal
CAKI-1 renal = system: CAKI-1 renal

How did the GI50 (NCI-H460 lung) turn out when `COc1ccc2nc(Nc3cccc(NC(=O)c4ccc(CN5CCN(C)CC5)c(C(F)(F)F)c4)c3)ccc2c1` was run?
The GI50 was 1.88 µM.

What about the TGI (NCI-H460 lung) of the same compound?
Its TGI is 7.21 µM.

And the GI50 (SR leukemia)?
Its GI50 is 1.31 µM.

What about the TGI (SR leukemia) of the same compound?
The TGI was 5.72 µM.

What about the GI50 (MALME-3M melanoma) of the same compound?
Its GI50 is 4.62 µM.

And the TGI (MALME-3M melanoma)?
Its TGI is 9.54 µM.

What about the GI50 (LOX IMVI melanoma) of the same compound?
The GI50 was 1.55 µM.

What about the TGI (LOX IMVI melanoma) of the same compound?
Its TGI is 6.05 µM.

What about the GI50 (OVCAR-5 ovarian) of the same compound?
Its GI50 is 6.1 µM.

And the TGI (OVCAR-5 ovarian)?
Its TGI is 11.5 µM.

What about the GI50 (SF-268 CNS) of the same compound?
The GI50 was 5.2 µM.

What about the TGI (SF-268 CNS) of the same compound?
Its TGI is 12.5 µM.

And the GI50 (SN12C renal)?
The GI50 was 5.49 µM.

And the TGI (SN12C renal)?
The TGI was 10.8 µM.

And the GI50 (MCF7 breast)?
Its GI50 is 1.37 µM.

And the TGI (MCF7 breast)?
The TGI was 6.12 µM.

And the GI50 (UACC-62 melanoma)?
The GI50 was 6.45 µM.

What about the TGI (UACC-62 melanoma) of the same compound?
The TGI was 11.9 µM.

What about the GI50 (HT29 colon) of the same compound?
Its GI50 is 1.32 µM.

What about the TGI (HT29 colon) of the same compound?
Its TGI is 5.08 µM.

What about the GI50 (SW-620 colon) of the same compound?
Its GI50 is 5.89 µM.

And the TGI (SW-620 colon)?
Its TGI is 11.6 µM.

And the GI50 (COLO 205 colon)?
The GI50 was 5.78 µM.

And the TGI (COLO 205 colon)?
Its TGI is 11.7 µM.

What about the GI50 (EKVX NSCLC) of the same compound?
Its GI50 is 4.53 µM.

And the TGI (EKVX NSCLC)?
Its TGI is 9.61 µM.

And the GI50 (SK-MEL-28 melanoma)?
The GI50 was 5.33 µM.

And the TGI (SK-MEL-28 melanoma)?
The TGI was 10.4 µM.

What about the GI50 (MDA-MB-468 breast) of the same compound?
Its GI50 is 1.56 µM.

And the TGI (MDA-MB-468 breast)?
Its TGI is 7.09 µM.

What about the GI50 (MDA-MB-231 breast) of the same compound?
The GI50 was 1.84 µM.

What about the TGI (MDA-MB-231 breast) of the same compound?
The TGI was 6.49 µM.

What about the GI50 (A549 NSCLC) of the same compound?
Its GI50 is 4.36 µM.

What about the TGI (A549 NSCLC) of the same compound?
The TGI was 9.66 µM.

And the GI50 (UACC-257 melanoma)?
The GI50 was 4.35 µM.

And the TGI (UACC-257 melanoma)?
Its TGI is 9.13 µM.

And the GI50 (ACHN renal)?
Its GI50 is 4.88 µM.

And the TGI (ACHN renal)?
Its TGI is 9.84 µM.

And the GI50 (T-47D breast)?
The GI50 was 4.12 µM.

And the TGI (T-47D breast)?
Its TGI is 9.96 µM.

And the GI50 (HOP-62 NSCLC)?
The GI50 was 6.36 µM.

And the TGI (HOP-62 NSCLC)?
Its TGI is 12 µM.

And the GI50 (MOLT-4 leukemia)?
The GI50 was 1.63 µM.

What about the TGI (MOLT-4 leukemia) of the same compound?
The TGI was 6.75 µM.

And the GI50 (HL-60(TB) leukemia)?
Its GI50 is 5.46 µM.

What about the TGI (HL-60(TB) leukemia) of the same compound?
Its TGI is 12.4 µM.

What about the GI50 (SK-MEL-5 melanoma) of the same compound?
The GI50 was 5.1 µM.

What about the TGI (SK-MEL-5 melanoma) of the same compound?
Its TGI is 10.2 µM.

And the GI50 (OVCAR-8 ovarian)?
The GI50 was 5.82 µM.

What about the TGI (OVCAR-8 ovarian) of the same compound?
Its TGI is 11.1 µM.

What about the GI50 (NCI-H522 lung) of the same compound?
The GI50 was 4.88 µM.

What about the TGI (NCI-H522 lung) of the same compound?
Its TGI is 10.3 µM.

And the GI50 (SNB-75 CNS)?
The GI50 was 0.684 µM.

What about the TGI (SNB-75 CNS) of the same compound?
Its TGI is 6.45 µM.

What about the GI50 (DU-145 prostate) of the same compound?
Its GI50 is 5.23 µM.

What about the TGI (DU-145 prostate) of the same compound?
Its TGI is 10.4 µM.

And the GI50 (SK-OV-3 ovarian)?
Its GI50 is 5.99 µM.

And the TGI (SK-OV-3 ovarian)?
Its TGI is 11.4 µM.

And the GI50 (HCC-2998 colon)?
Its GI50 is 5.25 µM.

And the TGI (HCC-2998 colon)?
The TGI was 10.7 µM.

And the GI50 (OVCAR-3 ovarian)?
Its GI50 is 5.89 µM.

What about the TGI (OVCAR-3 ovarian) of the same compound?
The TGI was 11.2 µM.

And the GI50 (TK-10 renal)?
Its GI50 is 6.52 µM.

What about the TGI (TK-10 renal) of the same compound?
The TGI was 12.1 µM.

And the GI50 (HS 578T breast)?
Its GI50 is 4.14 µM.

And the TGI (HS 578T breast)?
The TGI was 15 µM.

And the GI50 (OVCAR-4 ovarian)?
The GI50 was 4.32 µM.

What about the TGI (OVCAR-4 ovarian) of the same compound?
The TGI was 10 µM.

What about the GI50 (RXF 393 renal) of the same compound?
The GI50 was 1.75 µM.

And the TGI (RXF 393 renal)?
Its TGI is 6.96 µM.

What about the GI50 (UO-31 renal) of the same compound?
Its GI50 is 5.68 µM.

And the TGI (UO-31 renal)?
Its TGI is 10.9 µM.

What about the GI50 (SK-MEL-2 melanoma) of the same compound?
Its GI50 is 5.98 µM.

And the TGI (SK-MEL-2 melanoma)?
The TGI was 11.4 µM.

And the GI50 (NCI-H226 lung)?
The GI50 was 4.6 µM.

And the TGI (NCI-H226 lung)?
Its TGI is 9.77 µM.

What about the GI50 (RPMI-8226 leukemia) of the same compound?
Its GI50 is 3.14 µM.

What about the TGI (RPMI-8226 leukemia) of the same compound?
The TGI was 10.3 µM.

What about the GI50 (SNB-19 CNS) of the same compound?
Its GI50 is 6.14 µM.

And the TGI (SNB-19 CNS)?
Its TGI is 11.5 µM.

What about the GI50 (NCI-H23 lung) of the same compound?
The GI50 was 5.06 µM.

What about the TGI (NCI-H23 lung) of the same compound?
The TGI was 10.4 µM.

And the GI50 (BT-549 breast)?
Its GI50 is 5.58 µM.

What about the TGI (BT-549 breast) of the same compound?
Its TGI is 10.9 µM.

What about the GI50 (MDA-MB-435) of the same compound?
The GI50 was 5.73 µM.

And the TGI (MDA-MB-435)?
Its TGI is 11 µM.

And the GI50 (HOP-92 NSCLC)?
The GI50 was 1.36 µM.

What about the TGI (HOP-92 NSCLC) of the same compound?
The TGI was 6.15 µM.

What about the GI50 (CCRF-CEM leukemia) of the same compound?
Its GI50 is 2.15 µM.

What about the TGI (CCRF-CEM leukemia) of the same compound?
The TGI was 7.65 µM.

And the GI50 (K-562 leukemia)?
The GI50 was 0.882 µM.

And the TGI (K-562 leukemia)?
The TGI was 2.59 µM.

What about the GI50 (HCT-116 colon) of the same compound?
Its GI50 is 2.41 µM.

And the TGI (HCT-116 colon)?
The TGI was 7.74 µM.

And the GI50 (PC-3 prostate)?
The GI50 was 2.9 µM.

What about the TGI (PC-3 prostate) of the same compound?
Its TGI is 8.68 µM.

What about the GI50 (SF-539 CNS) of the same compound?
The GI50 was 2.08 µM.

And the TGI (SF-539 CNS)?
Its TGI is 7.59 µM.

And the GI50 (KM12 colon)?
Its GI50 is 4.05 µM.

What about the TGI (KM12 colon) of the same compound?
The TGI was 9.62 µM.

And the GI50 (IGROV1 ovarian)?
The GI50 was 6.22 µM.

What about the TGI (IGROV1 ovarian) of the same compound?
The TGI was 12.3 µM.

What about the GI50 (786-0 renal) of the same compound?
The GI50 was 4.99 µM.

And the TGI (786-0 renal)?
The TGI was 10.1 µM.

What about the GI50 (M14 melanoma) of the same compound?
Its GI50 is 3.63 µM.

What about the TGI (M14 melanoma) of the same compound?
The TGI was 8.58 µM.

And the GI50 (HCT-15 colon)?
The GI50 was 1.18 µM.

What about the TGI (HCT-15 colon) of the same compound?
The TGI was 4.45 µM.

What about the GI50 (U251 CNS) of the same compound?
Its GI50 is 3.77 µM.

What about the TGI (U251 CNS) of the same compound?
The TGI was 8.84 µM.

What about the GI50 (SF-295 CNS) of the same compound?
The GI50 was 3.41 µM.

And the TGI (SF-295 CNS)?
Its TGI is 8.74 µM.

What about the GI50 (A498 renal) of the same compound?
Its GI50 is 7.36 µM.

And the TGI (A498 renal)?
The TGI was 13.2 µM.

What about the GI50 (CAKI-1 renal) of the same compound?
Its GI50 is 4.9 µM.

And the TGI (CAKI-1 renal)?
The TGI was 9.97 µM.
